The assay addresses T1, PI3Kγ (purified recombinant p101/p110γ protein) (Homo sapiens, UniProt P48736).
T1 construct: HA; made in house; host or cells: Spodoptera frugiperda Sf9 cells (baculovirus co-infection)
As to the kind of experiment: PI3Kγ In Vitro Kinase Assay. In kind it is biochemical. To be noted: final ATP 20 μM, 25 μM PIP2, G protein β1/γ2 subunits, 20 minutes at room temperature. The procedure: Spodtera frugiperda cells, grown in ESF921 media, were co-infected with baculovirus expressing a glu-tagged p101 and baculovirus expressing an HA-tagged p110γ, at a 3:1 ratio of p101 baculovirus to p110γ baculovirus. Sf9 cells were grown to 1×10^7 total cells/mL in 10 L bioreactors and harvested 48-72 hours post infection. Samples of infected cells were then tested for expression of p101/p110γ PI3 kinase by immunoprecipitation and Western Blot analysis methods (see below).
To purify PI3Kγ, 4 volumes of room temperature hypotonic lysis buffer (1 mM MgCl2, 1 mM DTT, 5 mM EGTA, 1 mM Pefabloc, 0.5 μM aprotinin, 5 μM leupeptin, 2 μM pepstatin, 5 μM E64, pH 8) per gram of cell paste, was poured onto frozen cell pellets with stirring, then lysed in a nitrogen “bomb” at 400 psi (599HC T316, Parr Instrument Co, Moline, Ill.). NaCl was added to 150 mM, and sodium cholate was added to 1% and mixed for another 45 minutes. The lysates were clarified by centrifugation for 25 minutes at 14,000 rpm. The lysates were then loaded over anti-glu-linked Protein-G Sepaharose beads (Covance Research Products, Richmond, Calif.) using 20 mL resin/50 g cell paste. The column was washed with 15 volumes of wash buffer (1 mM DTT, 0.2 mM EGTA, 1 mM Pefabloc, 0.5 μM aprotinin, 5 μM leupeptin, 2 μM pepstatin, 5 μM E64, 150 mM NaCl, 1% sodium cholate, pH 8). PI3Kγ was eluted with 6 column volumes of wash buffer that contain 100 μg/mL of a peptide that competes for binding of the glu tag. The column fractions with the eluted protein (determined by taking OD280 readings) were collected and dialyzed in 0.2 mM EGTA, 1 mM DTT, 1 mM Pefabloc, 5 μM leupeptin, 0.5% sodium cholate, 150 mM NaCl, and 50% glycerol, pH 8. The fractions were stored at −80° C. until further use.
Spodtera frugiperda cells were coinfected with baculovirus expressing a glu-tagged G protein β1 and baculovirus expressing a G protein β2, at a 1:1 ratio of glu-tagged G protein β1 baculovirus to G protein β2 baculovirus. Sf9 cells are grown in 10 L bioreactors and harvested 48-72 hours post infection. Samples of infected cells were tested for G protein β1/β2 expression by Western Blot analysis, as described below. Cell lysates were homogenized and loaded onto a column of glu-tagged beads as in Biological Example 1 and competed off the column with a glu peptide and processed as described in Biological Example 1.
The inhibitory properties of the compounds in Table 1 were assayed in an in vitro PI3K assay. In a 96-well polypropylene plate, each well was spotted with 2 μL of 50 times the desired final concentration of compound in DMSO. Purified recombinant p101/p110γ protein (0.03 μg; ˜2.7 nM) and G protein β1/γ2 subunits (0.09 μg; ˜57.7 nM) for each reaction was combined in the assay buffer (30 mM HEPES, 100 mM NaCl, 1 mM EGTA, and 1 mM DTT). ATP and [γ-^32P-ATP] (0.09 μCi) were added to this mixture so that the final ATP concentration in the reaction was 20 μM. Lipid micelles were formed by sonicating phosphatidylinositol-4,5-diphosphate (PIP2), phosphatidylethanolamine (PE), and Na-cholate in the assay buffer for 10 minutes, adding MgCl2 and incubating on ice for 20 minutes, for final concentrations of 25 μM PIP2, 300 μM PE, 0.02% Na-cholate, and 10 mM MgCl2 in the reaction. The reactions were started by adding equal volumes lipid and enzyme mixture in a total volume of 50 μL, allowed to run for 20 minutes at room temperature, and stopped with 100 μL 75 mM H3PO4. The lipid product was transferred to a glass fiber filter plate and washed with 75 mM H3PO4 several times. The presence of radioactive lipid product (PIP3) was measured by adding Wallac Optiphase mix to each well and counting in a Wallac 1450 Trilux plate reader (PerkinElmer Life Sciences Inc., Boston, Mass. 02118). The IC50 for each compound tested is reported in μM in the Table 2: […]
T1 sequence (P48736 whole entry, species assumed): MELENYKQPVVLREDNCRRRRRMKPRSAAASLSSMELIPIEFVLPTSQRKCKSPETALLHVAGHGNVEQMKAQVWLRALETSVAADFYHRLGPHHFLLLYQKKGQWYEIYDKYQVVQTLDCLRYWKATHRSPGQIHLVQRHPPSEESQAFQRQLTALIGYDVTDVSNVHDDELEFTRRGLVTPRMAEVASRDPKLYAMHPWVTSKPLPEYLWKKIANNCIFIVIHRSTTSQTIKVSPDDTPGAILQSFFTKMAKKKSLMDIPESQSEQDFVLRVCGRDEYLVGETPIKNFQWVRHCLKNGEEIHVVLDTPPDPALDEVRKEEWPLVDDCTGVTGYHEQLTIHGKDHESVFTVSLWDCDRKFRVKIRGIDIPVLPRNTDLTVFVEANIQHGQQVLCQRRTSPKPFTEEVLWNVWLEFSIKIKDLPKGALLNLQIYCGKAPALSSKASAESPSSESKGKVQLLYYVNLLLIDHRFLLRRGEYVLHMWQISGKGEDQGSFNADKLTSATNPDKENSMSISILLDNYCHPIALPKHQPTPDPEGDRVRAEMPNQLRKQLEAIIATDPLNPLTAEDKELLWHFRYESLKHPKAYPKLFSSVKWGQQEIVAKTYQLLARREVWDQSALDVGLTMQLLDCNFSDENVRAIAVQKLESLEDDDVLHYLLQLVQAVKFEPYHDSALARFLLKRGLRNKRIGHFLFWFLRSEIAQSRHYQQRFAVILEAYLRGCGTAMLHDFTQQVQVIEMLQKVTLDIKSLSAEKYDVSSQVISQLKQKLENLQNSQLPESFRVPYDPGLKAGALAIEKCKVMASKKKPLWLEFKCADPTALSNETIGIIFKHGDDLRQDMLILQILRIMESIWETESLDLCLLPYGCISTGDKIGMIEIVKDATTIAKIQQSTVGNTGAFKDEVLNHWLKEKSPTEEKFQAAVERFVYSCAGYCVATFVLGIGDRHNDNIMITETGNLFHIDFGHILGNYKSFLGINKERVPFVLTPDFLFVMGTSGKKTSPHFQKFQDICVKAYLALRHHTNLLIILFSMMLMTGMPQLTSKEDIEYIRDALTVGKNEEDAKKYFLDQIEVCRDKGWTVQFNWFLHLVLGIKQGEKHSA
T1 sequence (Q8WYR1 whole entry partner, species assumed): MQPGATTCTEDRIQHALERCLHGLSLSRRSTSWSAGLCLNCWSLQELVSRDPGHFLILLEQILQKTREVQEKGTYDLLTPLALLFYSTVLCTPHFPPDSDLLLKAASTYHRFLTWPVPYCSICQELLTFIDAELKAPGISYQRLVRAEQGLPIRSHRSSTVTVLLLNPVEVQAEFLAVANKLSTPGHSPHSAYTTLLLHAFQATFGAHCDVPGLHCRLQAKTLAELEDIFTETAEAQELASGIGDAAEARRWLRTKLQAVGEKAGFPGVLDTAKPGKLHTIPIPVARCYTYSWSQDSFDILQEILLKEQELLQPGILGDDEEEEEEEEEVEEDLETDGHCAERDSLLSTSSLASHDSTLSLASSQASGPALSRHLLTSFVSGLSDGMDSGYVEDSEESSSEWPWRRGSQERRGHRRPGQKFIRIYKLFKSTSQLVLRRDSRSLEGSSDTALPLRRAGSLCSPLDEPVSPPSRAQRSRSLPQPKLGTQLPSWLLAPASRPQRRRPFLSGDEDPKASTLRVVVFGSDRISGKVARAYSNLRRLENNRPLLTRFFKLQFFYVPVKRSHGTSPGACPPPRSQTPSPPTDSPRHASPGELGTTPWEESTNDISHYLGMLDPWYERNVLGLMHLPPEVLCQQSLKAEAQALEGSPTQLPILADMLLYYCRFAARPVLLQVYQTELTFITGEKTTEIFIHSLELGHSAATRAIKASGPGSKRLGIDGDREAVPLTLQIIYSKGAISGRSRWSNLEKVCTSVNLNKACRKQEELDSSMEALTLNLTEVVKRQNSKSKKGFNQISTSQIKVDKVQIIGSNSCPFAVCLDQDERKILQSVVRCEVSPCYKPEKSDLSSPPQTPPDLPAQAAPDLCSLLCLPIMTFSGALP
As for `COC(=O)c1cc(Nc2nc(C)c3ccc(=O)n(C4CCCCCC4)c3n2)cn1C` [Example 1, 4-(8-Cycloheptyl-4-methyl-7-oxo-7,8-dihydro-pyrido[2,3-d]pyrimidin-2-ylamino)-1-methyl-1H-pyrrole-2-carboxylic acid methyl ester], the IC50 is 25 nM.

For `CCOC(=O)c1cc(Nc2nc(C)c3ccc(=O)n(C)c3n2)cn1C(C)c1ccccc1` (stereo not drawn) [Example 2, 4-(4,8-Dimethyl-7-oxo-7,8-dihydro-pyrido[2,3-d]pyrimidin-2-ylamino)-1-(1-phenyl-ethyl)-1H-pyrrole-2-carboxylic acid ethyl ester], the IC50 stood at 63 nM.

Turning to `COC(=O)c1cc(Nc2nc(C)c3ccc(=O)n(C4CC4)c3n2)cn1C` [Example 3, 4-(8-Cyclopropyl-4-methyl-7-oxo-7,8-dihydro-pyrido[2,3-d]pyrimidin-2-ylamino)-1-methyl-1H-pyrrole-2-carboxylic acid methyl ester], the IC50 is 18 nM.

For `COC(=O)c1cc(Nc2nc(C)c3ccc(=O)n(C4CCC4)c3n2)cn1C` [Example 4, 4-(8-Cyclobutyl-4-methyl-7-oxo-7,8-dihydro-pyrido[2,3-d]pyrimidin-2-ylamino)-1-methyl-1H-pyrrole-2-carboxylic acid methyl ester], the IC50 was found to be 13 nM.

Turning to `COC(=O)c1cc(Nc2nc(C)c3ccc(=O)n(C4CCOCC4)c3n2)cn1C` [Example 5, 1-Methyl-4-[4-methyl-7-oxo-8-(tetrahydro-pyran-4-yl)-7,8-dihydro-pyrido[2,3-d]pyrimidin-2-ylamino]-1H-pyrrole-2-carboxylic acid methyl ester], the 50% inhibitory concentration (IC50) was determined as 24 nM.

Turning to `COC(=O)c1cc(Nc2nc(C)c3ccc(=O)n(C4CCCCC4)c3n2)cn1C` [Example 6, 4-(8-Cyclohexyl-4-methyl-7-oxo-7,8-dihydro-pyrido[2,3-d]pyrimidin-2-ylamino)-1-methyl-1H-pyrrole-2-carboxylic acid methyl ester], the 50% inhibitory concentration (IC50) came out at 4 nM.

`CCOC(=O)c1cc(Nc2nc(C)c3ccc(=O)n(C4CCCCCC4)c3n2)cn1Cc1ccccc1` [Example 7, 1-Benzyl-4-(8-cycloheptyl-4-methyl-7-oxo-7,8-dihydro-pyrido[2,3-d]pyrimidin-2-ylamino)-1H-pyrrole-2-carboxylic acid ethyl ester]: the IC50 amounted to 36 nM.

As for `COC(=O)c1cc(Nc2nc(C)c3ccc(=O)n(CCC4CC4)c3n2)cn1C` [Example 8, 4-[8-(2-Cyclopropyl-ethyl)-4-methyl-7-oxo-7,8-dihydro-pyrido[2,3-d]pyrimidin-2-ylamino]-1-methyl-1H-pyrrole-2-carboxylic acid methyl ester], the IC50 turned out to be 12 nM.

With `COC(=O)c1cc(Nc2nc(C)c3cc(F)c(=O)n(C4CCCC4)c3n2)cn1C` [Example 9, 4-(8-Cyclopentyl-6-fluoro-4-methyl-7-oxo-7,8-dihydro-pyrido[2,3-d]pyrimidin-2-ylamino)-1-methyl-1H-pyrrole-2-carboxylic acid methyl ester], the half-maximal inhibitory concentration (IC50) amounted to 12 nM.

As for `COC(=O)c1cc(Nc2nc(C)c3cc(F)c(=O)n(CC4CCOCC4)c3n2)cn1C` [Example 10, 4-[6-Fluoro-4-methyl-7-oxo-8-(tetrahydro-pyran-4-ylmethyl)-7,8-dihydro-pyrido[2,3-d]pyrimidin-2-ylamino]-1-methyl-1H-pyrrole-2-carboxylic acid methyl ester], the IC50 was found to be 8 nM.

Take `COC(=O)c1cc(Nc2nc(C)c3cc(F)c(=O)n(C4CCC(OC)CC4)c3n2)cn1C` (stereo not drawn) [Example 11, 4-[6-Fluoro-8-(4-methoxy-cyclohexyl)-4-methyl-7-oxo-7,8-dihydro-pyrido[2,3-d]pyrimidin-2-ylamino]-1-methyl-1H-pyrrole-2-carboxylic acid methyl ester]: the IC50 stood at 5 nM.

With `CCOC(=O)c1cc(Nc2nc(C)c3cc(F)c(=O)n(C4CCCC4)c3n2)cn1Cc1cccnc1` [Example 12, 4-(8-Cyclopentyl-6-fluoro-4-methyl-7-oxo-7,8-dihydro-pyrido[2,3-d]pyrimidin-2-ylamino)-1-pyridin-3-ylmethyl-1H-pyrrole-2-carboxylic acid ethyl ester], the IC50 stood at 4 nM.

Values taken from patent publication US20080255162A1, “Pyrrolyl Substituted Pyrido[2,3-D]Pyrimidin-7-Ones and Derivatives Thereof as Therapeutic Agents” (WARNER-LAMBERT COMPANY LLC, priority 2004, published 2008).
